Experimental findings from patent US20250122183A1 (Pfizer Inc., priority 2023, published 2025) are described below.

Read-outs that look alike come from different tables or passages of the source.

The target in assay [1] is KAT7+JADE1+EAF6+ING5 4 protein complex (Homo sapiens (Human), UniProt O95251). Description: KAT7 JADE1 assay (SAMDI-MS acetylation of H3 1-21 peptide). Particulars: replicate number in parentheses. Type of assay: biochemical.
For another assay, the target named is KAT6A Full length enzyme (Homo sapiens (Human), UniProt Q92794). Description: KAT6A assay (SAMDI-MS acetylation of H3 1-21 peptide). The class given is biochemical. Particulars: replicate number in parentheses.
KAT6A Full length enzyme, sequence (Q92794 other isoform, or with tags, fused parts or gaps): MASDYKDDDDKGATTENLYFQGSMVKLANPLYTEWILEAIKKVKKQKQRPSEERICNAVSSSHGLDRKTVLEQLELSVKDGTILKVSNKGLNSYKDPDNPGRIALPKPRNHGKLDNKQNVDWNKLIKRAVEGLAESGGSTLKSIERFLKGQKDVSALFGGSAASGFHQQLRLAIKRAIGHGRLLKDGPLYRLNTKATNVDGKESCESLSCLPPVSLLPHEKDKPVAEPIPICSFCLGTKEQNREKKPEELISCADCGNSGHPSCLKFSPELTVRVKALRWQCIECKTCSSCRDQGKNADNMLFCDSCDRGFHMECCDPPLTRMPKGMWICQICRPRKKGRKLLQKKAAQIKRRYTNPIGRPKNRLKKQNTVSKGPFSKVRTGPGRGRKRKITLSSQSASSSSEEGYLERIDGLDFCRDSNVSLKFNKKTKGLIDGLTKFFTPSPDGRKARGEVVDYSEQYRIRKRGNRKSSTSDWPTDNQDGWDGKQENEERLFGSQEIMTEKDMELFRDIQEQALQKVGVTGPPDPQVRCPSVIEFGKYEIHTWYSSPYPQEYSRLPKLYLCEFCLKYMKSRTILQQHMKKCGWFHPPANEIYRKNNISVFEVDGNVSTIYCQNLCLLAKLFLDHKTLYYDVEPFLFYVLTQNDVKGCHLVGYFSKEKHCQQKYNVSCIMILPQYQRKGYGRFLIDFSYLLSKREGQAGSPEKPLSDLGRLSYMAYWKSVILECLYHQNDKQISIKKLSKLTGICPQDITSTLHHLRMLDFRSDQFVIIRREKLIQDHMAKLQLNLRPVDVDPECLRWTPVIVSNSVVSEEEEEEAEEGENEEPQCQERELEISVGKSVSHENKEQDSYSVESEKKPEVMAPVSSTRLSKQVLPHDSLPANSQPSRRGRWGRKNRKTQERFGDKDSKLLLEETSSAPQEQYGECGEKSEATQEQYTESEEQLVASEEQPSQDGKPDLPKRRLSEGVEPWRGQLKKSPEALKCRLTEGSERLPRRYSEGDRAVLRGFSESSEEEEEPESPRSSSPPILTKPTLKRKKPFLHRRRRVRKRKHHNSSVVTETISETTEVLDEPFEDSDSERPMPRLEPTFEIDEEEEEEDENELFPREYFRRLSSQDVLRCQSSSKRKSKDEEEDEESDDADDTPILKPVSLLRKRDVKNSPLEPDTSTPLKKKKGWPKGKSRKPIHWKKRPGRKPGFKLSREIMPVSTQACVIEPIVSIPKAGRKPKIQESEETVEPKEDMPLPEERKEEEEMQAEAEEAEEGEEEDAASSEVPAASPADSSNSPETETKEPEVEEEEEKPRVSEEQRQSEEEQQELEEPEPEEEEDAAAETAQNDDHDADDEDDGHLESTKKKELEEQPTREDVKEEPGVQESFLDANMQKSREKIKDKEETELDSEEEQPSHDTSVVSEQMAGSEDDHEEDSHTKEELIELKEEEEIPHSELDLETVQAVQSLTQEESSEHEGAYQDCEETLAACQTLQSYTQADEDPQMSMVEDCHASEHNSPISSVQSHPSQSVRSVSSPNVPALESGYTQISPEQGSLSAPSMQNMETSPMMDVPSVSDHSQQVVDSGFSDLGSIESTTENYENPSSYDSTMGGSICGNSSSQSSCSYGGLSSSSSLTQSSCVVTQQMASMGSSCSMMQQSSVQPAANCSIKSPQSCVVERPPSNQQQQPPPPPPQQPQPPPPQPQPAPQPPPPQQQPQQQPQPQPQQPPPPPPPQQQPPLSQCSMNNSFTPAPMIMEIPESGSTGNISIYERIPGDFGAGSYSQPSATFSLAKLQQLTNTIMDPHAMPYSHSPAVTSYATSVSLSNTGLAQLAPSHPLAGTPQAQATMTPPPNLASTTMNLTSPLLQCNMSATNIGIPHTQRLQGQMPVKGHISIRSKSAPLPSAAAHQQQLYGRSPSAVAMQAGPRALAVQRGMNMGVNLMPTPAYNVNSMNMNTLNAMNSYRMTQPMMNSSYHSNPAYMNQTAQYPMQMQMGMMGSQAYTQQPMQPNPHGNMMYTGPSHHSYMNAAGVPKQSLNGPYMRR
Where [2] appears, read: Morrison equation fit, read-out: KAT7 JADE1 Ki (nM) (replicate number).
[3] abbreviates: Morrison equation fit, read-out: KAT6A Ki (nM) (replicate number).
Where [4] appears, read: read-out: KAT7 JADE1 Ki (nM) (replicate).
The mark [5] stands for this setting: read-out: KAT6A Ki (nM) (replicate).

Turning to `COc1cc2c(NS(=O)(=O)c3c(OC)cc(C4CCCCN4C)cc3OC)noc2cc1Nc1cc(C2CC2)n[nH]1` (single isomer, unassigned) [Example 172, N-{6-[(3-cyclopropyl-1 H-pyrazol-5-yl)amino]-5-methoxy-1,2-benzoxazol-3-yl}-2,6-dimethoxy-4-(1-methylpiperidin-2-yl)benzene-1-sulfonamide], the results for the Ki (in assay [1] (setting [2]); at KAT6A Full length enzyme (setting [3])) were 34.1 nM and 4.4 nM, respectively.
Regarding `CCN1CCCCC1c1cc(OC)c(S(=O)(=O)Nc2noc3cc(Nc4cc(C5CC5)n[nH]4)c(OC)cc23)c(OC)c1` (single isomer, unassigned) [Example 173, N-{6-[(3-cyclopropyl-1 H-pyrazol-5-yl)amino]-5-methoxy-1,2-benzoxazol-3-yl}-4-(1-ethylpiperidin-2-yl)-2,6-dimethoxybenzene-1-sulfonamide], the Ki (commonly the dissociation constant of the complex between target and ligand, obtained from inhibition or displacement) was 114 nM in assay [1] (setting [2]) and 7.5 nM at KAT6A Full length enzyme (setting [3]).
On the same counts, the results for `CCN1CCCCC1c1cc(OC)c(S(=O)(=O)Nc2noc3cc(Nc4cc(C5CC5)n[nH]4)c(OC)cc23)c(OC)c1` (single isomer, unassigned) [Example 174, N-{6-[(3-cyclopropyl-1 H-pyrazol-5-yl)amino]-5-methoxy-1,2-benzoxazol-3-yl}-4-(1-ethylpiperidin-2-yl)-2,6-dimethoxybenzene-1-sulfonamide] are 27.3 nM and 4.4 nM.
`COc1cc2c(NS(=O)(=O)c3c(OC)cc(C4CN(C)CCC4(F)F)cc3OC)noc2cc1Nc1cc(C2CC2)n[nH]1` (single isomer, unassigned) [Example 175, N-{6-[(3-cyclopropyl-1 H-pyrazol-5-yl)amino]-5-methoxy-1,2-benzoxazol-3-yl}-4-(4,4-difluoro-1-methylpiperidin-3-yl)-2,6-dimethoxybenzene-1-sulfonamide]: the figures for the Ki (in assay [1] (setting [2]); on KAT6A Full length enzyme (setting [3])) were 1 nM and 0.4 nM, respectively.
With `COc1cc2c(NS(=O)(=O)c3c(OC)cc(C4COCCN4C)cc3OC)noc2cc1Nc1cc(C2CC2)[nH]n1` (single isomer, unassigned) [Example 179, N-{6-[(5-cyclopropyl-1 H-pyrazol-3-yl)amino]-5-methoxy-1,2-benzoxazol-3-yl}-2,6-dimethoxy-4-(4-methylmorpholin-3-yl)benzene-1-sulfonamide], the Ki in assay [1] (setting [2]) is 8.6 nM; at KAT6A Full length enzyme (setting [3]) it was 1 nM.
On the same counts, the results for `CCN1CCCC1c1cc(OC)c(S(=O)(=O)Nc2noc3cc(Nc4cc(C5CC5)[nH]n4)c(OC)cc23)c(OC)c1` (single isomer, unassigned) [Example 190, N-{6-[(5-cyclopropyl-1 H-pyrazol-3-yl)amino]-5-methoxy-1,2-benzoxazol-3-yl}-4-(1-ethylpyrrolidin-2-yl)-2,6-dimethoxybenzene-1-sulfonamide] are 54.5 nM and 5.6 nM.
On the same counts, the results for `CCN1CCCC1c1cc(OC)c(S(=O)(=O)Nc2noc3cc(Nc4cc(C5CC5)[nH]n4)c(OC)cc23)c(OC)c1` (single isomer, unassigned) [Example 191, N-{6-[(5-cyclopropyl-1 H-pyrazol-3-yl)amino]-5-methoxy-1,2-benzoxazol-3-yl}-4-(1-ethylpyrrolidin-2-yl)-2,6-dimethoxybenzene-1-sulfonamide] are 15.4 nM and 2.3 nM.
On the same counts, the results for `COc1cc2c(NS(=O)(=O)c3c(OC)cc(CN4CCC[C@H](F)C4)cc3OC)noc2cc1Nc1cc(C2CC2)n[nH]1` (single isomer, unassigned) [Example 197, N-{6-[(3-cyclopropyl-1H-pyrazol-5-yl)amino]-5-methoxy-1,2-benzoxazol-3-yl}-4-[(3-fluoropiperidin-1-yl)methyl]-2,6-dimethoxybenzene-1-sulfonamide] are 7.3 nM and 1.3 nM.
On to `COc1cc2c(NS(=O)(=O)c3c(OC)cc(CN4CCC[C@@H](F)C4)cc3OC)noc2cc1Nc1cc(C2CC2)n[nH]1` (single isomer, unassigned) [Example 198, N-{6-[(3-cyclopropyl-1H-pyrazol-5-yl)amino]-5-methoxy-1,2-benzoxazol-3-yl}-4-[(3-fluoropiperidin-1-yl)methyl]-2,6-dimethoxybenzene-1-sulfonamide], for which the values for the Ki (in assay [1] (setting [2]); at KAT6A Full length enzyme (setting [3])) were 5.9 nM and 1.1 nM, respectively.
For the compound `COc1cc2c(NS(=O)(=O)c3c(OC)cc(C(C)N4CCOCC4)cc3OC)noc2cc1Nc1cc(C2CC2)n[nH]1` (single isomer, unassigned) [Example 208, N-{6-[(3-cyclopropyl-1H-pyrazol-5-yl)amino]-5-methoxy-1,2-benzoxazol-3-yl}-2,6-dimethoxy-4-[1-(morpholin-4-yl)ethyl]benzene-1-sulfonamide], the Ki was determined as 7.6 nM in assay [1] (setting [2]) and 2.4 nM on KAT6A Full length enzyme (setting [3]).
On the same counts, the results for `COc1cc2c(NS(=O)(=O)c3c(OC)cc(C(C)N4CC(F)C4)cc3OC)noc2cc1Nc1cc(C2CC2)[nH]n1` (single isomer, unassigned) [Example 210, N-{6-[(5-cyclopropyl-1H-pyrazol-3-yl)amino]-5-methoxy-1,2-benzoxazol-3-yl}-4-[1-(3-fluoroazetidin-1-yl)ethyl]-2,6-dimethoxybenzene-1-sulfonamide] are 6.6 nM and 1.2 nM.
Turning to `COc1cc2c(NS(=O)(=O)c3c(OC)cc(C4CN(C)CC(F)(F)C4)cc3OC)noc2cc1Nc1cc(C2CC2)[nH]n1` (single isomer, unassigned) [Example 228, N-{6-[(5-cyclopropyl-1 H-pyrazol-3-yl)amino]-5-methoxy-1,2-benzoxazol-3-yl}-4-(5,5-difluoro-1-methylpiperidin-3-yl)-2,6-dimethoxybenzene-1-sulfonamide], the Ki in assay [1] (setting [2]) was 6.2 nM; at KAT6A Full length enzyme (setting [3]), 0.8 nM.
As to `COc1cc2c(NS(=O)(=O)c3c(OC)cc(C4CN(C)CC(F)(F)C4)cc3OC)noc2cc1Nc1cc(C2CC2)[nH]n1` (single isomer, unassigned) [Example 229, N-{6-[(5-cyclopropyl-1 H-pyrazol-3-yl)amino]-5-methoxy-1,2-benzoxazol-3-yl}-4-(5,5-difluoro-1-methylpiperidin-3-yl)-2,6-dimethoxybenzene-1-sulfonamide], the figures for the Ki (in assay [1] (setting [2]); on KAT6A Full length enzyme (setting [3])) were 6.4 nM and 1.7 nM, respectively.
Take `CCc1cc(Nc2cc3onc(NS(=O)(=O)c4c(OC)cc(C5COCCO5)cc4OC)c3cc2OC)[nH]n1` (single isomer, unassigned) [Example 239, 4-(1,4-dioxan-2-yl)-N-{6-[(3-ethyl-1H-pyrazol-5-yl)amino]-5-methoxy-1,2-benzoxazol-3-yl}-2,6-dimethoxybenzene-1-sulfonamide]: the Ki worked out at 14.1 nM in assay [1] (setting [2]) and 2.1 nM at KAT6A Full length enzyme (setting [3]).
As for `CCc1cc(Nc2cc3onc(NS(=O)(=O)c4c(OC)cc(C5COCCO5)cc4OC)c3cc2OC)[nH]n1` (single isomer, unassigned) [Example 240, 4-(1,4-dioxan-2-yl)-N-{6-[(3-ethyl-1H-pyrazol-5-yl)amino]-5-methoxy-1,2-benzoxazol-3-yl}-2,6-dimethoxybenzene-1-sulfonamide], the Ki in assay [1] (setting [2]) is 7.5 nM; on KAT6A Full length enzyme (setting [3]), 1.2 nM.
The like results for `COc1cc2c(NS(=O)(=O)c3c(OC)cc(-c4ccn(C)n4)cc3OC)noc2cc1Nc1cc(C2CC2C)n[nH]1` (single isomer, unassigned) [Example 241, 2,6-dimethoxy-N-(5-methoxy-6-{[3-(2-methylcyclopropyl)-1H-pyrazol-5-yl]amino}-1,2-benzoxazol-3-yl)-4-(1-methyl-1H-pyrazol-3-yl)benzene-1-sulfonamide] were, in that order, 75.3 nM and 2.6 nM.
The like results for `COc1cc2c(NS(=O)(=O)c3c(OC)cc(N4C(=O)CCC4C)cc3OC)noc2cc1Nc1cc(C2CC2)n[nH]1` (single isomer, unassigned) [Example 244, N-{6-[(3-cyclopropyl-1 H-pyrazol-5-yl)amino]-5-methoxy-1,2-benzoxazol-3-yl}-2,6-dimethoxy-4-(2-methyl-5-oxopyrrolidin-1-yl)benzene-1-sulfonamide] were, in that order, 1.3 nM and 0.2 nM.
The like results for `COc1cc2c(NS(=O)(=O)c3c(OC)cc(N4C(=O)CCC4C)cc3OC)noc2cc1Nc1cc(C2CC2)n[nH]1` (single isomer, unassigned) [Example 245, N-{6-[(3-cyclopropyl-1 H-pyrazol-5-yl)amino]-5-methoxy-1,2-benzoxazol-3-yl}-2,6-dimethoxy-4-(2-methyl-5-oxopyrrolidin-1-yl)benzene-1-sulfonamide] were, in that order, 3.6 nM and 0.7 nM.
For `COc1cc2c(NS(=O)(=O)c3c(OC)cc(C4CCOC4)cc3OC)noc2cc1Nc1cc(C2CC2)n[nH]1` (single isomer, unassigned) [Example 266, N-{6-[(3-cyclopropyl-1H-pyrazol-5-yl)amino]-5-methoxy-1,2-benzoxazol-3-yl}-2,6-dimethoxy-4-(oxolan-3-yl)benzene-1-sulfonamide], the values for the Ki (in assay [1] (setting [4]); at KAT6A Full length enzyme (setting [5])) were 13.6 nM and 1.6 nM, respectively.
In the case of `COc1cc2c(NS(=O)(=O)c3c(OC)cc(C4CCOC4)cc3OC)noc2cc1Nc1cc(C2CC2)n[nH]1` (single isomer, unassigned) [Example 267, N-{6-[(3-cyclopropyl-1H-pyrazol-5-yl)amino]-5-methoxy-1,2-benzoxazol-3-yl}-2,6-dimethoxy-4-(oxolan-3-yl)benzene-1-sulfonamide], the Ki in assay [1] (setting [4]) was found to be 9.3 nM; at KAT6A Full length enzyme (setting [5]), 1.3 nM.
For the compound `COc1cc2c(NS(=O)(=O)c3c(OC)cc(C4CCCOC4)cc3OC)noc2cc1Nc1cc(C2CC2)n[nH]1` (single isomer, unassigned) [Example 268, N-{6-[(3-cyclopropyl-1 H-pyrazol-5-yl)amino]-5-methoxy-1,2-benzoxazol-3-yl}-2,6-dimethoxy-4-(oxan-3-yl)benzene-1-sulfonamide], the values for the Ki (in assay [1] (setting [4]); on KAT6A Full length enzyme (setting [5])) were 8.8 nM and 1.2 nM, respectively.
